± gives the standard deviation of the averaged measurements.
Columns and labels:
UT-SCC-24A [1] = assay: drug sensitivity score (DSS); higher = more sensitive; settings: treatment time: 3 days
Procedure: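 HNSCC cell lines (500 cells/well, 384-well) were cultured on plastic, on top of (2D) or embedded (3D) in Matrigel or human leiomyoma matrix Myogel (500 ug/mL; Myogel 3D mixed with rat collagen I). Cells were treated for 3 days with 5 ten-fold concentrations of each drug, and viability was read by CellTiter-Glo. Suffixes _1/_2/_3 on drug names are replicates.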

UT-SCC-14 [2] = assay: maximal % inhibition of viability relative to DMSO; higher = stronger effect; settings: treatment time: 3 days
Procedure: (§1)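 HNSCC cell lines (500 cells/well, 384-well) were cultured on plastic, on top of (2D) or embedded (3D) in Matrigel or human leiomyoma matrix Myogel (500 ug/mL; Myogel 3D mixed with rat collagen I). Cells were treated for 3 days with 5 ten-fold concentrations of each drug, and viability was read by CellTiter-Glo. Viability was normalised to DMSO and benzethonium chloride controls and fitted with the FIMM DSRT pipeline to give IC50 (nM), maximal % inhibition and DSS. Suffixes _1/_2/_3 are replicates. Only inhibition-mode (IC50) fits are kept.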

UT-SCC-42B = assay: as above; settings: treatment time: 3 days
Procedure: as §1

UT-SCC-81 = assay: as above; settings: treatment time: 3 days
Procedure: as §1

UT-SCC-24A [3] = assay: as above; settings: treatment time: 3 days
Procedure: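 HNSCC cell lines (500 cells/well, 384-well) were cultured on plastic, on top of (2D) or embedded (3D) in Matrigel or human leiomyoma matrix Myogel (500 ug/mL; Myogel 3D mixed with rat collagen I). Cells were treated for 3 days with 5 ten-fold concentrations of each drug, and viability was read by CellTiter-Glo. Viability was normalised to DMSO (0% inhibition) and 100 uM benzethonium chloride (100% inhibition) controls and fitted with the FIMM DSRT pipeline to give IC50 (nM), maximal % inhibition and the drug sensitivity score (DSS). Suffixes _1/_2/_3 on drug names are replicates.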

UT-SCC-106A = assay: drug sensitivity score (DSS); higher = more sensitive; extreme values may be limits of the assay; settings: treatment time: 3 days
Outline: (§2)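 HPV-negative HNSCC cell lines were plated at 500 cells/well in 384-well plates, either on plastic, on wells coated with Matrigel or Myogel (500 µg/mL), or embedded in Matrigel or Myogel plus rat collagen I. Each compound was tested at five 10-fold concentrations over 3 days. Viability was measured by CellTiter-Glo 2.0 luminescence, and IC50, maximal inhibition and drug sensitivity score came from percent-inhibition dose–response curves fitted in the FIMM pipeline after normalisation to vehicle (0.1% DMSO) and cell-killing control wells.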

UT-SCC-14 [4] = assay: as above; settings: treatment time: 3 days
Outline: as §2

UT-SCC-24B = assay: as above; settings: treatment time: 3 days
Outline: as §2

UT-SCC-28 = assay: as above; settings: culture condition: embedded in Matrigel; treatment time: 3 days
Outline: as §2

[5] = culture condition: embedded in Matrigel
[6] = culture condition: embedded in Myogel + collagen I
[7] = culture condition: on top of Matrigel
[8] = culture condition: on top of Myogel
[9] = culture condition: plastic 2D (no matrix)

`Cn1c(=O)n(-c2ccc(C(C)(C)C#N)cc2)c2c3cc(-c4cnc5ccccc5c4)ccc3ncc21` [Dactolisib] gave a drug sensitivity score (UT-SCC-24A [1]; [5]) of 5.73 ± 5 DSS, a drug sensitivity score (UT-SCC-24A [1]; [6]) of 0.767 ± 1.3 DSS and a drug sensitivity score (UT-SCC-24A [1]; [7]) of 0 DSS. The drug sensitivity score (UT-SCC-24A [1]; [8]) was 0 DSS, the drug sensitivity score (UT-SCC-24A [1]; [9]) was 0 DSS and the “maximal % inhibition of viability” value (UT-SCC-14 [2]; [5]) was 16.8 ± 19%. For the same compound, the “maximal % inhibition of viability” value (UT-SCC-14 [2]; [6]) was 16.2 ± 15%, the “maximal % inhibition of viability” value (UT-SCC-14 [2]; [7]) was 7.17 ± 5.8% and the “maximal % inhibition of viability” value (UT-SCC-14 [2]; [8]) was 7.03 ± 7.9%. For the same compound, the “maximal % inhibition of viability” value (UT-SCC-14 [2]; [9]) was 11.7 ± 10%, the “maximal % inhibition of viability” value (UT-SCC-42B; [5]) was 12.9 ± 6% and the “maximal % inhibition of viability” value (UT-SCC-42B; [7]) was 10.9 ± 6.9%. The “maximal % inhibition of viability” value (UT-SCC-42B; [8]) was 6.13 ± 1.8%, the “maximal % inhibition of viability” value (UT-SCC-42B; [9]) was 1.67 ± 0.57% and the “maximal % inhibition of viability” value (UT-SCC-81; [5]) was 40.7 ± 33%. For the same compound, the “maximal % inhibition of viability” value (UT-SCC-81; [6]) was 7.33 ± 3.7%, the “maximal % inhibition of viability” value (UT-SCC-81; [7]) was 5.13 ± 5.4% and the “maximal % inhibition of viability” value (UT-SCC-81; [8]) was 11.2 ± 3.1%. The “maximal % inhibition of viability” value (UT-SCC-81; [9]) was 6.5 ± 2.2%, the “maximal % inhibition of viability” value (UT-SCC-24A [3]; [5]) was 34.6 ± 9% and the “maximal % inhibition of viability” value (UT-SCC-24A [3]; [6]) was 14.9 ± 11%. For the same compound, the “maximal % inhibition of viability” value (UT-SCC-24A [3]; [7]) was 14.7 ± 5.4%, the “maximal % inhibition of viability” value (UT-SCC-24A [3]; [8]) was 4.17 ± 3.1% and the “maximal % inhibition of viability” value (UT-SCC-24A [3]; [9]) was 6.6 ± 2.1%. The drug sensitivity score (UT-SCC-106A; [5]) was 0 DSS, the drug sensitivity score (UT-SCC-106A; [6]) was 0 DSS and the drug sensitivity score (UT-SCC-106A; [7]) was 0 DSS. It also gave a drug sensitivity score (UT-SCC-106A; [8]) of 0 DSS, a drug sensitivity score (UT-SCC-106A; [9]) of 0.0333 ± 0.058 DSS and a drug sensitivity score (UT-SCC-14 [4]; [5]) of 3.03 ± 5.2 DSS. The drug sensitivity score (UT-SCC-14 [4]; [6]) was 0 DSS, the drug sensitivity score (UT-SCC-14 [4]; [7]) was 0 DSS and the drug sensitivity score (UT-SCC-14 [4]; [8]) was 0 DSS. The drug sensitivity score (UT-SCC-14 [4]; [9]) was 0.3 ± 0.52 DSS, the drug sensitivity score (UT-SCC-24B; [5]) was 11.6 ± 0.64 DSS and the drug sensitivity score (UT-SCC-24B; [6]) was 16.3 ± 0.52 DSS. For the same compound, the drug sensitivity score (UT-SCC-24B; [7]) was 13.4 ± 0.46 DSS, the drug sensitivity score (UT-SCC-24B; [8]) was 13.6 ± 0.51 DSS and the drug sensitivity score (UT-SCC-24B; [9]) was 12.8 ± 0.25 DSS. It also gave a drug sensitivity score (UT-SCC-28) of 0 DSS.

Reference: the supplement of paper PMC7017272
